How the values were obtained:
[1] = molecular target: Gamma-aminobutyric acid receptor subunit alpha-1/alpha-2/beta-2/gamma-2 (Homo sapiens, UniProt P14867+P18507+P47869+P47870); format: protein-complex assay
[2] = molecular target: Vascular endothelial growth factor receptor 2 (Homo sapiens, UniProt P35968); format: functional
[3] = molecular target: T1, Alpha-2A adrenergic receptor (Homo sapiens, UniProt P08913); format: functional, cell-based
T1 sequence (P08913 whole entry): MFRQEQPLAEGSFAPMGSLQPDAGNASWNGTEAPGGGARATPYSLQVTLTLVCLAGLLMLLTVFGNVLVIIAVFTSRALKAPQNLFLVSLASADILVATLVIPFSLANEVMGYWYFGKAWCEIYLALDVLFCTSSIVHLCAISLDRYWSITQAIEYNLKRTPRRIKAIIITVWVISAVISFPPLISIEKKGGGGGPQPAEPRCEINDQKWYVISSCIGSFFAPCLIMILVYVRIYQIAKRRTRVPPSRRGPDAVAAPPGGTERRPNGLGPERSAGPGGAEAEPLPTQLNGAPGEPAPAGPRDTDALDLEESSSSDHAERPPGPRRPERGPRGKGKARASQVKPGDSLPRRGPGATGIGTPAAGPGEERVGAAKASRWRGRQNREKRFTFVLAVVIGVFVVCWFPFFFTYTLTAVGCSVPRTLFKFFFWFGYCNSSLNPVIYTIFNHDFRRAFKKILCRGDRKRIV

[4] = molecular target: T2, Alpha-2B adrenergic receptor (Homo sapiens, UniProt P18089)
T2 sequence (P18089 whole entry): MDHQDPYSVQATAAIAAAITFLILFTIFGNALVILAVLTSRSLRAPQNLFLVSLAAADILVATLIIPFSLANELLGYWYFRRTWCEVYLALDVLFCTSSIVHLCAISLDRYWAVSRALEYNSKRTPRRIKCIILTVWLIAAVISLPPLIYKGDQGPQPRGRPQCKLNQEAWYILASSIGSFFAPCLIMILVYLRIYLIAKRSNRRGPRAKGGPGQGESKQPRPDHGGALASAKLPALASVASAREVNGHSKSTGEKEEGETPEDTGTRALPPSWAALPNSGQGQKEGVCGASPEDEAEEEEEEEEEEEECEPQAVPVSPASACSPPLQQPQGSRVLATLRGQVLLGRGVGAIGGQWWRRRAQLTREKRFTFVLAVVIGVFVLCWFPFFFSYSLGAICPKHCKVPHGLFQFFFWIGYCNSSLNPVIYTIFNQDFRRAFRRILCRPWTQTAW

[5] = molecular target: Cannabinoid receptor 1 (Homo sapiens, UniProt P21554); format: functional, cell-based
Cannabinoid receptor 1, sequence (P21554 whole entry): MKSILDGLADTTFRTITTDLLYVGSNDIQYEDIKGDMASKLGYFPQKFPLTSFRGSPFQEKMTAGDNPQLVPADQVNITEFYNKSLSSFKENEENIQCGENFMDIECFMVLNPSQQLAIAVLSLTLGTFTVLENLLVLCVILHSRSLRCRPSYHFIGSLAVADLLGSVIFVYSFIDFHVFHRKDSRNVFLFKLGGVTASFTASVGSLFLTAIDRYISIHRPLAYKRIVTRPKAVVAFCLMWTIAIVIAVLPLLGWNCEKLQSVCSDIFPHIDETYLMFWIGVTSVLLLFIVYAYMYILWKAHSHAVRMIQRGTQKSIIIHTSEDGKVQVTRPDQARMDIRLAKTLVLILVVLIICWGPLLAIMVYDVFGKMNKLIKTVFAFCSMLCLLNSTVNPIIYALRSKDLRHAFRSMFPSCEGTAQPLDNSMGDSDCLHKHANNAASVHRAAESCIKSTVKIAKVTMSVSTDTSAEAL

[6] = molecular target: Glutamate receptor ionotropic, NMDA 1 (Rattus norvegicus, UniProt P35439)
[7] = molecular target: Histamine H1 receptor (Homo sapiens, UniProt P35367)
Histamine H1 receptor, sequence (P35367 whole entry): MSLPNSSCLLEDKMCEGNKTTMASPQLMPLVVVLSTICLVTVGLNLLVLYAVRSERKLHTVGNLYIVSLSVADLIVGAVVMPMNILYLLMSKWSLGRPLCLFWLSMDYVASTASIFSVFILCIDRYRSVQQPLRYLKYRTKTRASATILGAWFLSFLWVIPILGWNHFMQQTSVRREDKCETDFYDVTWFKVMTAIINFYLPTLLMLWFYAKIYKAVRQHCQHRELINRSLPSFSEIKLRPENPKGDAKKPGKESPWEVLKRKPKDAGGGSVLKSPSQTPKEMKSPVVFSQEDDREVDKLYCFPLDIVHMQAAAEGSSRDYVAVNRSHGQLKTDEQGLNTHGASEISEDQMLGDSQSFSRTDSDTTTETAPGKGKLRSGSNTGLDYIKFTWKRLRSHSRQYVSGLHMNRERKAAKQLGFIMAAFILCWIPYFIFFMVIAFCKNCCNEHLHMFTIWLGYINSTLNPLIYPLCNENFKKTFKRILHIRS

[8] = molecular target: T3, 5-hydroxytryptamine receptor 3A (Homo sapiens, UniProt P46098); format: functional
T3 sequence (P46098 whole entry): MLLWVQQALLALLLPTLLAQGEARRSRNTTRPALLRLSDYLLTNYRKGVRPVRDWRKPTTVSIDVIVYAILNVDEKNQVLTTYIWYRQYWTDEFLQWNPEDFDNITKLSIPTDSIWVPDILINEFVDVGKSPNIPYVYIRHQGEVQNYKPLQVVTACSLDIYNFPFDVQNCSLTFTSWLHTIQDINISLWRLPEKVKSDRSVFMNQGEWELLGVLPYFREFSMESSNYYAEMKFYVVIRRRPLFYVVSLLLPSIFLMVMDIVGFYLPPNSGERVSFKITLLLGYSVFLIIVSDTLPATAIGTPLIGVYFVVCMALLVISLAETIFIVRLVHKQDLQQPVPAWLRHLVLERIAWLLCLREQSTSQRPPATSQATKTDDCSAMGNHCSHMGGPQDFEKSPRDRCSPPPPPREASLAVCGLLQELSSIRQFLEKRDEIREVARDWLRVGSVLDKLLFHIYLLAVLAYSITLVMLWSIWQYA

[9] = molecular target: Delta-type opioid receptor (Homo sapiens, UniProt P41143)
Delta-type opioid receptor, sequence (P41143 whole entry): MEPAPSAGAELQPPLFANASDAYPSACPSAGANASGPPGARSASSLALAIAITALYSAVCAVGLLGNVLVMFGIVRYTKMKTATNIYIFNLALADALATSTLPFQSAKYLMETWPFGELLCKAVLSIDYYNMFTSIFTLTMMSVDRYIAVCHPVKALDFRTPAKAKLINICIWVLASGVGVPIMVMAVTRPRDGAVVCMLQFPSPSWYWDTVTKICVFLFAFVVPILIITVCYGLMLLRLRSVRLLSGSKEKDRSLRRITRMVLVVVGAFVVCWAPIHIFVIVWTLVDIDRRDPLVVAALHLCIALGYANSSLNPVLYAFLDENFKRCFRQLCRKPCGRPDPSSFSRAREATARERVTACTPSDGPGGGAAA

[10] = molecular target: Kappa-type opioid receptor (Homo sapiens, UniProt P41145)
Kappa-type opioid receptor, sequence (P41145 whole entry): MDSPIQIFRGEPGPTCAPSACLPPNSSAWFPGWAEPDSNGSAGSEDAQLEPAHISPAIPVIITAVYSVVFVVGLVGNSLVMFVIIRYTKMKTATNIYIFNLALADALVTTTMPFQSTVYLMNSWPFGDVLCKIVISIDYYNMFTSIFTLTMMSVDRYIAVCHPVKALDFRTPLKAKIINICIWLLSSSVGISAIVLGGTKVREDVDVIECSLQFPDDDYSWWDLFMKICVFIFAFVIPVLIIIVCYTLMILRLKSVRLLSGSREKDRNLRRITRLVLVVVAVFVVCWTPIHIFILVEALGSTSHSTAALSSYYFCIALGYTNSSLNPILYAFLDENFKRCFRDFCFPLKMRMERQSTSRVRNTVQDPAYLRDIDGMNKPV

[11] = molecular target: 3',5'-cyclic-AMP phosphodiesterase 4D (Homo sapiens, UniProt Q08499); format: functional
[12] = molecular target: Sodium-dependent noradrenaline transporter (Homo sapiens, UniProt P23975)
Sodium-dependent noradrenaline transporter, sequence (P23975 whole entry): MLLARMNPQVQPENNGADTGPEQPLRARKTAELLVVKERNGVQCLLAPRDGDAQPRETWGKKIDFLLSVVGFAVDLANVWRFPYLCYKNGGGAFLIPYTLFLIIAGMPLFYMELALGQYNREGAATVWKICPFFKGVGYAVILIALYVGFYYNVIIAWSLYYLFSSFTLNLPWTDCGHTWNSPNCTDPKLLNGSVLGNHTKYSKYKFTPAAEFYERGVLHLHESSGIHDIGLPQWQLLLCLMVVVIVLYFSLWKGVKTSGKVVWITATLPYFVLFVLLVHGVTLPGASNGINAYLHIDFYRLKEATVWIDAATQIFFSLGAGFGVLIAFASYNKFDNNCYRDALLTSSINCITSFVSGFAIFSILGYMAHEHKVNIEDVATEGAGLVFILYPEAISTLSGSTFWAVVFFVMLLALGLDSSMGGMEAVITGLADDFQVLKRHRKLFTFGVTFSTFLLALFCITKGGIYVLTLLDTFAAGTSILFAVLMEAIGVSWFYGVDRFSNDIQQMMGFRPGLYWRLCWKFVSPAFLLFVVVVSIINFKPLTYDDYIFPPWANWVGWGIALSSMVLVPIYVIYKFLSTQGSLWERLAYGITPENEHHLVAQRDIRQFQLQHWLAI

[13] = molecular target: T4, Amine oxidase [flavin-containing] A (Homo sapiens, UniProt P21397); format: functional
T4 sequence (P21397 whole entry): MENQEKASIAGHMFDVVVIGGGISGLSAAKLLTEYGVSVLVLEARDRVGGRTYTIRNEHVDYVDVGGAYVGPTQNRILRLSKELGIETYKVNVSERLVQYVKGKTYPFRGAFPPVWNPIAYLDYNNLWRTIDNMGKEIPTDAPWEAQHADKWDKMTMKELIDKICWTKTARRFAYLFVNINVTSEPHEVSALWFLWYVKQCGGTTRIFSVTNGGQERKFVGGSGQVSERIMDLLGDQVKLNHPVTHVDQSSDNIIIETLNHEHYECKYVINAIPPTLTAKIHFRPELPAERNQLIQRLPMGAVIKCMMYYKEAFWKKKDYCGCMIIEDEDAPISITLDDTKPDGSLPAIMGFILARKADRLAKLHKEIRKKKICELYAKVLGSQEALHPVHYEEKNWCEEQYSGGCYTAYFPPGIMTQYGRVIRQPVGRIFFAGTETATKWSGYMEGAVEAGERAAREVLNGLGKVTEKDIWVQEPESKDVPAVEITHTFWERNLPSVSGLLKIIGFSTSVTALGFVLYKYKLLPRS
Further: assay procedure not described here.

Gamma-aminobutyric acid receptor subunit alpha-1/alpha-2/beta-2/gamma-2, sequence (P14867 whole entry): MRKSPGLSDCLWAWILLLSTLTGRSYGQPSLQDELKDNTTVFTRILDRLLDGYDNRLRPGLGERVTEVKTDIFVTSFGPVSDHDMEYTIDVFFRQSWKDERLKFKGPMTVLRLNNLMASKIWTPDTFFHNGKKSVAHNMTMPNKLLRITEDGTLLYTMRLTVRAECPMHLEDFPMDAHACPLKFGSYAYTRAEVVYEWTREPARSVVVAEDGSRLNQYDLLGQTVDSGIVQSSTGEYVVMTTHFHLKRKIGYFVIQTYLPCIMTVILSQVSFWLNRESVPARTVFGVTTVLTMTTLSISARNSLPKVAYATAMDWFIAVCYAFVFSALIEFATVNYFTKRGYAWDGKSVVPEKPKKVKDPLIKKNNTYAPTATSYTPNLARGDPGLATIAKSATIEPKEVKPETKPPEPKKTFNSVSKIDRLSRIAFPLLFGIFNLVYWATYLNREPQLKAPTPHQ
Gamma-aminobutyric acid receptor subunit alpha-1/alpha-2/beta-2/gamma-2, sequence (P47870 whole entry): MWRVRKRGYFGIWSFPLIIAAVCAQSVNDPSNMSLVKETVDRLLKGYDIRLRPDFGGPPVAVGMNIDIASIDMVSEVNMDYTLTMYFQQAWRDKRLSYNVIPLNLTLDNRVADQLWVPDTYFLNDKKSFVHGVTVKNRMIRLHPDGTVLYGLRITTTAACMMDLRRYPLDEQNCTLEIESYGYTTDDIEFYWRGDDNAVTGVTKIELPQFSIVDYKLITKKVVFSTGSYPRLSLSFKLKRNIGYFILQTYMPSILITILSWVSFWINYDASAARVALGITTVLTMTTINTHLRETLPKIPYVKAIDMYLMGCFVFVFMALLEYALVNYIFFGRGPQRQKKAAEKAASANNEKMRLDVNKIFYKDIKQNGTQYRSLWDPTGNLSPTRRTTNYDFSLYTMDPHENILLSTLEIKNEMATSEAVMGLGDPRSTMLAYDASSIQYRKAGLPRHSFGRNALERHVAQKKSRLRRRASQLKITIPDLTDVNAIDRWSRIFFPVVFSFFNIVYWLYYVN
Gamma-aminobutyric acid receptor subunit alpha-1/alpha-2/beta-2/gamma-2, sequence (P18507 whole entry): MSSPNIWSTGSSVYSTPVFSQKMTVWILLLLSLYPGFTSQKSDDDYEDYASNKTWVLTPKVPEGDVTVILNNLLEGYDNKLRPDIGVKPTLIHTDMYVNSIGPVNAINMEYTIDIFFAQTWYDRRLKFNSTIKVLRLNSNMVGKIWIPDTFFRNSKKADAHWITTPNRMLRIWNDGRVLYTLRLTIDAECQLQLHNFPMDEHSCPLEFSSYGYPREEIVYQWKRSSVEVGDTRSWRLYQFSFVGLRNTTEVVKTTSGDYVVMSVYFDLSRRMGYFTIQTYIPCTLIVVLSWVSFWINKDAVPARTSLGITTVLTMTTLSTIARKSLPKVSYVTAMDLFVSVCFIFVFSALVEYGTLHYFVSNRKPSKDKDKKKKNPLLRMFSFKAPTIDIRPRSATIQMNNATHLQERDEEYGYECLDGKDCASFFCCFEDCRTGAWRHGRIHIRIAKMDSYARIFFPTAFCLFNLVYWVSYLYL
Gamma-aminobutyric acid receptor subunit alpha-1/alpha-2/beta-2/gamma-2, sequence (P47869 whole entry): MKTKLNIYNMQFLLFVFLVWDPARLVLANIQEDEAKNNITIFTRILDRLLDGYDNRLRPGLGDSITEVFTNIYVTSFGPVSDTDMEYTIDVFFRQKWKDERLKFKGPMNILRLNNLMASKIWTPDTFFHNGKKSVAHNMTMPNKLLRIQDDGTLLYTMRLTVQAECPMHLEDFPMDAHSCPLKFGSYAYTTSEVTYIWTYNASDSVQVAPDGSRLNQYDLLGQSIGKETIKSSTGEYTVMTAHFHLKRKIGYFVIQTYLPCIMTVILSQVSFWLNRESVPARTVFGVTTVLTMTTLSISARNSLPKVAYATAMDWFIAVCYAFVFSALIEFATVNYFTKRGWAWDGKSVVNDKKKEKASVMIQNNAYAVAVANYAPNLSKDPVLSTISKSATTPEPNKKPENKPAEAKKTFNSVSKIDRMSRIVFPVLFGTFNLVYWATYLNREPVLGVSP

Cc1c(O)cccc1C(=O)N[C@@H](CSc1ccccc1)[C@H](O)CN1C[C@H]2CCCC[C@H]2C[C@H]1C(=O)NC(C)(C)C
AC50 [1]: > 30 µM
AC50 [2]: > 30 µM

Nc1ccc(C(=O)O)cc1 [AMINOBENZOIC ACID]
AC50 [2]: > 30 µM

CCCC1C(=O)N2C(N(C)C)=Nc3ccc(C)cc3N2C1=O (stereo not given) [APAZONE]
AC50 [1]: > 30 µM
AC50 [2]: > 30 µM

O=C1CN=C(c2ccccc2)c2c(sc3c2CCCC3)N1 [BENTAZEPAM]
AC50 [2]: > 30 µM

O=C(O)CCCN1CCC(O[C@@H](c2ccc(Cl)cc2)c2ccccn2)CC1 [BEPOTASTINE]
AC50 [2]: > 30 µM

CN(Cc1cc(Br)cc(Br)c1N)C1CCCCC1 [BROMHEXINE]
AC50 [1]: > 30 µM
AC50 [2]: > 30 µM

CCCCN(CCCC)CCCOC(=O)c1ccc(N)cc1 [BUTACAINE]
AC50 [2]: > 30 µM

CCCC[N+]1(C)[C@@H]2C[C@@H](OC(=O)[C@H](CO)c3ccccc3)C[C@H]1[C@@H]1O[C@@H]12 (stereo not given in full) [BUTYLSCOPOLAMINE]
AC50 [2]: > 30 µM

N[C@@H](CSCC(=O)O)C(=O)O [CARBOCYSTEINE]
AC50 [3]: > 30 µM
AC50 [4]: > 30 µM
AC50 [5]: > 30 µM
AC50 [6]: > 30 µM
AC50 [7]: > 30 µM
AC50 [8]: > 30 µM
AC50 [9]: > 30 µM
AC50 [10]: > 30 µM
AC50 [11]: > 10 µM
AC50 [12]: > 30 µM
AC50 [13]: > 30 µM

CC(C)(N)Cc1ccc(Cl)cc1 [CHLORPHENTERMINE]
AC50 [3]: > 10 µM
AC50 [4]: > 10 µM
AC50 [5]: > 30 µM
AC50 [6]: > 10 µM
AC50 [7]: 14 µM
AC50 [8]: > 30 µM
AC50 [9]: > 30 µM
AC50 [10]: > 10 µM
AC50 [11]: > 30 µM
AC50 [12]: 13.7 µM
AC50 [13]: > 10 µM

O=C(c1ccc(F)c(F)c1Nc1ccc(I)cc1F)N1CC(O)([C@@H]2CCCCN2)C1 [COBIMETINIB]
AC50 [2]: > 30 µM

CN1CCN(C(c2ccccc2)c2ccccc2)CC1 [CYCLIZINE]
AC50 [1]: > 30 µM
AC50 [2]: > 30 µM

NS(=O)(=O)c1cc2c(cc1Cl)NC(C1CC3C=CC1C3)NS2(=O)=O (stereo not given) [CYCLOTHIAZIDE]
AC50 [2]: > 30 µM

Nc1nc(-n2cc(C(=O)O)c(=O)c3cc(F)c(N4CC(O)C4)c(Cl)c32)c(F)cc1F [DELAFLOXACIN]
AC50 [1]: > 30 µM
AC50 [2]: > 30 µM

C[C@@H]1C[C@H]2[C@@H]3CCC4=CC(=O)C=C[C@]4(C)[C@@]3(F)[C@@H](O)C[C@]2(C)[C@H]1C(=O)CO [DESOXIMETASONE]
AC50 [1]: > 30 µM
AC50 [2]: > 30 µM

COc1ccc(-c2cc(=O)c3c(O)cc(O[C@@H]4O[C@H](CO[C@@H]5O[C@@H](C)[C@H](O)[C@@H](O)[C@H]5O)[C@@H](O)[C@H](O)[C@H]4O)cc3o2)cc1O [DIOSMIN]
AC50 [1]: > 30 µM
AC50 [2]: > 30 µM

CCOc1ccc(/C=C2\NCCc3cc(OCC)c(OCC)cc32)cc1OCC [DROTAVERINE]
AC50 [1]: > 30 µM
AC50 [2]: > 30 µM

CC1=NN(c2ccccc2)C(=O)C1 [EDARAVONE]
AC50 [1]: > 30 µM
AC50 [2]: > 30 µM

CCOC(=O)C(c1c(O)c2ccccc2oc1=O)c1c(O)c2ccccc2oc1=O [ETHYL BISCOUMACETATE]
AC50 [2]: > 30 µM

C=C1C[C@@H]2[C@H](CC[C@]3(C)C(=O)CC[C@@H]23)[C@@]2(C)C=CC(=O)C=C12 [EXEMESTANE]
AC50 [3]: > 10 µM
AC50 [4]: > 10 µM
AC50 [5]: > 30 µM
AC50 [6]: > 10 µM
AC50 [7]: > 10 µM
AC50 [8]: > 30 µM
AC50 [9]: > 30 µM
AC50 [10]: 2.41 µM
AC50 [11]: > 30 µM
AC50 [12]: > 30 µM
AC50 [13]: > 10 µM

Cc1nc(-c2ccc(OCC(C)C)c(C#N)c2)sc1C(=O)O [FEBUXOSTAT]
AC50 [2]: > 30 µM

O=C1NCC2(CCN(CCc3ccccc3)CC2)O1 [FENSPIRIDE]
AC50 [2]: > 30 µM

C[C@@H]1C[C@H]2[C@@H]3C[C@H](F)C4=CC(=O)C=C[C@]4(C)[C@@]3(F)[C@@H](O)C[C@]2(C)[C@@]1(O)C(=O)COC(=O)C(C)(C)C [FLUMETHASONE PIVALATE]
AC50 [1]: > 30 µM
AC50 [2]: > 30 µM

C[C@@H]1C[C@H]2[C@@H]3C[C@H](F)C4=CC(=O)C(Cl)=C[C@]4(C)[C@@]3(F)[C@@H](O)C[C@]2(C)[C@@]1(O)C(=O)CO [HALOMETASONE]
AC50 [2]: > 30 µM

CC(C)Cc1ccc(C(C)C(=O)NO)cc1 (stereo not given) [IBUPROXAM]
AC50 [1]: > 30 µM
AC50 [2]: > 30 µM

CC/C=C\C/C=C\C/C=C\C/C=C\C/C=C\CCCC(=O)O [ICOSAPENT]
AC50 [1]: > 30 µM
AC50 [2]: > 30 µM

Oc1c(I)cc(I)c2cccnc12 [IODOQUINOL]
AC50 [1]: > 30 µM
AC50 [2]: > 30 µM

CC(=O)N(CC(O)CO)c1c(I)c(C(=O)NCC(O)CO)c(I)c(C(=O)NCC(O)CO)c1I (stereo not given) [IOHEXOL]
AC50 [3]: > 10 µM
AC50 [4]: > 10 µM
AC50 [5]: > 30 µM
AC50 [6]: > 10 µM
AC50 [7]: > 10 µM
AC50 [8]: > 30 µM
AC50 [9]: > 30 µM
AC50 [10]: > 10 µM
AC50 [11]: > 30 µM
AC50 [12]: > 30 µM
AC50 [13]: > 10 µM

CCC(Cc1c(I)cc(I)c(N)c1I)C(=O)O (stereo not given) [IOPANOIC ACID]
AC50 [2]: > 30 µM

O=C(NC1CCN(CCCCC2(C(=O)NCC(F)(F)F)c3ccccc3-c3ccccc32)CC1)c1ccccc1-c1ccc(C(F)(F)F)cc1 [LOMITAPIDE]
AC50 [2]: > 30 µM

CCN(CC)CCNc1ccc(C)c2sc3ccccc3c(=O)c12 [LUCANTHONE]
AC50 [1]: > 30 µM
AC50 [2]: > 30 µM

CCC1(c2cccc(O)c2)CCCCN(C)C1 (stereo not given) [MEPTAZINOL]
AC50 [2]: > 30 µM

C1N2CN3CN1CN(C2)C3 [METHENAMINE]
AC50 [2]: > 30 µM

CN(C/C=C/c1ccccc1)Cc1cccc2ccccc12 [NAFTIFINE]
AC50 [3]: > 10 µM
AC50 [4]: > 10 µM
AC50 [5]: > 30 µM
AC50 [6]: > 10 µM
AC50 [7]: > 10 µM
AC50 [8]: > 30 µM
AC50 [9]: > 30 µM
AC50 [10]: 10.6 µM
AC50 [11]: > 30 µM
AC50 [12]: 11.1 µM
AC50 [13]: > 10 µM

CC(C)NCC1CCc2cc(CO)c([N+](=O)[O-])cc2N1 (stereo not given) [OXAMNIQUINE]
AC50 [3]: > 10 µM
AC50 [4]: > 10 µM
AC50 [5]: > 30 µM
AC50 [6]: > 10 µM
AC50 [7]: > 10 µM
AC50 [8]: > 30 µM
AC50 [9]: > 30 µM
AC50 [10]: 13.4 µM
AC50 [11]: > 30 µM
AC50 [12]: > 30 µM
AC50 [13]: > 10 µM

O=C1CCC(N2C(=O)c3ccccc3C2=O)C(=O)N1 (stereo not given) [THALIDOMIDE]
AC50 [3]: > 10 µM
AC50 [5]: > 30 µM
AC50 [6]: > 10 µM
AC50 [8]: > 30 µM
AC50 [2]: > 30 µM
AC50 [9]: > 30 µM
AC50 [10]: > 10 µM
AC50 [11]: > 30 µM
AC50 [12]: > 10 µM
AC50 [13]: > 10 µM

CCC1C(C)=NN=C(c2ccc(OC)c(OC)c2)c2cc(OC)c(OC)cc21 (stereo not given) [TOFISOPAM]
AC50 [2]: > 30 µM

Source: ChEMBL document CHEMBL5291721, “A preclinical secondary pharmacology resource illuminates target-adverse drug reaction associations of marketed drugs” (Nat Commun, 2023)
